According to patent US10336752B2, “TYK2 inhibitors, uses, and methods for production thereof” (Nimbus Lakshmi, Inc., priority 2017, dated 2019):
In brackets after ≈: the same amount, converted by molar mass.

Experiments:
[1] = Dissolution Assay in Fasted Simulated Gastric Fluid; type: physicochemical; conditions: 37° C., 50 rpm, compressed disc
Procedure: The dissolution bath was filled with 900 mL of media for testing, the bath temperature held at 37° C., the rotation rate of the apparatus was 50 rpm, the draw point for the sampling probe was set exactly halfway between the surface of the media and the surface of the disc. The test article (0.4 g) was compressed into a disc using a Woods apparatus. The sampling time points were 10, 30, 60, 90, 120, 150 & 180. The samples were analysed by HPLC for concentration against a sample preparation of known concentration (ca. 0.5 mg/ml). Dissolution rate was derived from the curve of concentration against time.

[2] = CACO-2 Cell Permeability Assay; type: in vitro ADME; conditions: human, Caco-2, pH 7.4, apical to basolateral
Procedure: Caco-2 cells were diluted to 6.86×10^5 cells/mL with culture medium and 50 μL of cell suspension were dispensed into the filter well of the 96-well HTS Transwell plate. Cells were cultivated for 14˜18 days in a cell culture incubator at 37° C., 5% C02, 95% relative humidity. Cell culture medium was replaced every 2 days, beginning no later than 24 hours after initial plating. 3) After 14˜18 days incubation, the plates were removed from incubator. The inserts were washed twice with pre-warmed HBSS (10 mM HEPES, pH 7.4) and placed into receiver plates. 75 μL and 235 μL of buffer were added to each Transwell inserts and receiver wells, respectively. Then the plates were incubated for 30 min at 37° C. with shaking at 150 rpm. Stock solutions of control compound were prepared in DMSO at 10 mM and then diluted to 1 mM with DMSO followed by further diluting with HBSS (10 mM HEPES, pH 7.4) to get compound working solution. Stock solutions of test compound were prepared in DMSO at 10 mM and then diluted to 1 mM with DMSO followed by further diluting with HBSS (10 mM HEPES, pH 7.4, 4% BSA) to get compound working solution. The final concentration of test compound and control compound was 5 μM. To determine the rate of drug transport in the apical to basolateral direction, 75 μL of compound working solution was added to the filter well (apical compartment) and 235 μL of HBSS (10 mM HEPES, pH 7.4, or 4% BSA) to receiver plate (basolateral compartment). To determine the rate of drug transport in the basolateral to apical direction, 235 μL of compound working solution was added to each well of the receiver plate (basolateral compartment) and 75 μL of HBSS (10 mM HEPES, pH 7.4, or 4% BSA) to filter well (apical compartment). The assay was performed in duplicate. 6) Plates were incubated for 2 hours at 37° C. At the end of the transport period, aliquots of 50 μL were removed directly from the apical and basolateral wells and transferred to wells of new plates. Four volumes of cold Methanol containing internal standards (IS, 100 nM Alprazolam, 200 nM Labetalol and 200 nM Diclofenac) was added into each well. Samples were centrifuged at 3,220 g for 30 minutes. An aliquot of 100 μL of the supernatant mixed with 100 μL of ultra-pure water were used for LC-MS/MS analysis. 7) Solution was discarded from Transwell plates. 100 μL of Lucifer Yellow solution (100 μM in HBSS) and 300 μL of HBSS were added into each well of Transwell insert and receiver, respectively, for leakage determination. Plates were incubated at 37° C. for 30 minutes. 80 μL aliquots from wells of apical and basolateral sides were transferred to solid black plates and the plate was read with Tecan Infinite M 200 (Excitation/Emission wavelength 485 nm/530 nm). The liquid fractions, apical and basolateral layers were analyzed by LC-MS to determine Papp(A-B), Papp(B-A) and recovery.

[3] = Pharmacokinetic Study in Dogs; type: in vivo; conditions: male, Beagle; dog, oral gavage 10 mg/kg, 20% HPβCD aq., plasma
Procedure: Male Beagle dogs (9-14 kg; 2.5 to 5.5 years of age) housed one per cage under standard laboratory conditions were fasted for approximately 16 to 17 hours prior to dosing with food returned approximately 2 hours after dosing. […] Blood samples were collected from the jugular vein (˜1.5 mL) by venipuncture, and stored in tubes treated with K2EDTA, then centrifuged (3000 g, 4° C., 5 min). The plasma samples were transferred and stored at −70° C. until analysis. Bioanalysis: Concentrations for experimental samples and plasma calibration standards were determined by LC/MS/MS (API-5500, reverse-phase chromatography, APCI) following extraction by plasma precipitation with cold acetonitrile (4:1 ACN/plasma by volume) containing verapamil as an internal standard. PK Analysis: The individual animal plasma concentration-time data was analyzed by noncompartmental analysis (linear trapazoidal fitting) using PK Solver software (v2.0).

[4] = Kinetic Solubility Determination Assay; type: physicochemical; conditions: aqueous buffer, kinetic from dmso stock, PBS pH 7.4, RT, read-out: Kin. Sol. pH 7.4
Procedure: Stock solutions of test compounds were prepared in DMSO at the concentration of 10 mM. The stock solutions of positive control compound were prepared in DMSO at the concentration of 30 mM. Progesterone was used as positive control in the assay. 30 μL stock solution of each compound was placed in order into their proper 96-well rack, followed by adding 970 μL of PBS at pH 7.4 into each vial of the cap-less solubility sample plate. This study was performed in duplicate. One stir stick was added to each vial and then vials were sealed using a molded PTDE/SIL 96-Well Plate Cover. The Solubility Sample plate was transferred to the Thermomixer Comfort plate shaker and incubated at RT for 2 hours with shaking at 1100 rpm. After 2 hours incubation, stir sticks were removed using a big magnet and all samples from the Solubility Sample plate were transferred into the filter plate. All the samples were filtered by using the vacuum manifold. The filtered samples were diluted with methanol. Standards of each test compound were prepared at 0.3, 0.09 and 0.1 μM concentrations and both the test samples and standards were analyzed by LC-MS and the test samples were quantified against a standard of known concentration in DMSO using mass spectral peak identification and quantitation.

[5] = Metabolic Clearance Assay in Microsomes (human liver microsomes); type: in vitro ADME; conditions: NADPH and UDPGA, read-out: HLM Clint
Procedure: A master solution was prepared containing 0.5 mg/mL of either rat or human liver microsomes, 5 mM MgCl2, 100 mM phosphate buffer, and 25 ug/mL alamethacin. 40 μL of 10 mM NADPH solution and 40 μL of 20 mM UDPGA solution were added to each well. The final concentrations of NADPH and UDPGA were 1 mM and 2 mM, respectively. The mixture was pre-warmed at 37° C. for 5 minutes. The negative control samples were prepared by replacing NADPH and UDPGA solutions with 80 μL of ultra-pure H2O. The negative control was used to exclude the misleading factor that resulted from instability of chemical itself. This study was performed in duplicate. The reaction was started with the addition of 2 μL of 400 μM control compound or test compound solutions. Diclofenac was used as positive control in this study. The final concentration of test compound or control compound was 2 μM. Aliquots of 50 μL were taken from the reaction solution at 0, 15, 30, 45 and 60 minutes. The reaction was stopped by the addition of 4 volumes of cold acetonitrile (or methanol) with internal standard (IS) (100 nM alprazolam, 200 nM imipramine, 200 nM labetalol and 2 μM ketoprofen) at the designated time points. Samples were centrifuged at 3,220 g for 40 minutes to precipitate protein. Aliquot of 100 μL supernatant diluted by 100 μL of water was used for LC-MS/MS analysis. The in vitro half-life, scale-up intrinsic clearance, and predicted hepatic clearance were calculated according to standard calculations.

TYK2 = TYK2 (Homo sapiens (Human), UniProt P29597); assay: 1 mM ATP Tyk2 Caliper Assay; type: biochemical; conditions: ATP 1000 uM
Procedure: Compounds were serially diluted in DMSO then further diluted in 1x kinase buffer: 5 uL of buffer diluted compound was added into wells first, then 10 uL of Tyk2 enzyme mix was added into wells, followed by 10 uL of substrate mix to start reaction. Reaction was incubated at 28° C. for 25 min and then added 25 uL stop buffer. The reaction mixture was read by a Caliper […]. Final concentrations for assay conditions were: 25 mM HEPES, pH 7.5, 0.01% Brij-35, 0.01% Triton, 0.5 mM EGTA, 2 mM DTT, 10 mM MgCl2, TYK2 4 nM, ATP concentration 1000 uM, and P30 3 uM.

[6] = Solid form stability of Compound 1 mesylate forms; type: physicochemical; conditions: for solid form stability at ambient conditions: drying / ambient conditions

TYK2, sequence (P29597 whole entry): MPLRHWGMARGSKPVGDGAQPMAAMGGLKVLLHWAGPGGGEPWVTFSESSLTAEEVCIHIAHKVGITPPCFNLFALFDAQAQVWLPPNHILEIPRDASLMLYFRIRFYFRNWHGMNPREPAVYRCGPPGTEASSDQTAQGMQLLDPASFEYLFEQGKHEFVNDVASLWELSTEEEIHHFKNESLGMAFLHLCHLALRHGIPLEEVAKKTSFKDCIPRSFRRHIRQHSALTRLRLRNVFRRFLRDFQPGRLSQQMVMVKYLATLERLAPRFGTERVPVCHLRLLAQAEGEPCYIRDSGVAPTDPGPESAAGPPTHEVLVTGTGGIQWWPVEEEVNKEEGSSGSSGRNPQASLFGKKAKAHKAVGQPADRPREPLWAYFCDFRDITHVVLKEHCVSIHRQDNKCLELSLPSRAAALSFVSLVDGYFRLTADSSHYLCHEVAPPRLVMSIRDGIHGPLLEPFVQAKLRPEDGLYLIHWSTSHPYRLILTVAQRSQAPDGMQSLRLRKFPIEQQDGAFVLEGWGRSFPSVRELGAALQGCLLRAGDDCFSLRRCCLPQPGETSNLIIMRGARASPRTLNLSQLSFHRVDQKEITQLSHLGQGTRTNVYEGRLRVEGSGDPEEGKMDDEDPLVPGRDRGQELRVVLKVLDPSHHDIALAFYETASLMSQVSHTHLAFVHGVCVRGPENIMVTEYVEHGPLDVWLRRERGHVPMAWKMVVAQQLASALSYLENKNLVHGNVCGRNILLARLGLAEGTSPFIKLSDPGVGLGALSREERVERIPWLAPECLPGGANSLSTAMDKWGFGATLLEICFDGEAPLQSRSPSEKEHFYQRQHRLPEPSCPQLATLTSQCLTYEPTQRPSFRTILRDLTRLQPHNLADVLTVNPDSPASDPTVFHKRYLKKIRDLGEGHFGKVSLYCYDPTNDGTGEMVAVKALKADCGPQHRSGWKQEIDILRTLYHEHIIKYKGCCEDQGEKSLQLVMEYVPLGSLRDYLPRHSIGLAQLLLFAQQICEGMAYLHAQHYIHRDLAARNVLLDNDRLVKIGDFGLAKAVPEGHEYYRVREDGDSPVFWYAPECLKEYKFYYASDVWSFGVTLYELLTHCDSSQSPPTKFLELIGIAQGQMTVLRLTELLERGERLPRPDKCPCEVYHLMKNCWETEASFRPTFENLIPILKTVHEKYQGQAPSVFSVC

| Structure (SMILES) | dissolution rate in Fasted Simulated Gastric Fluid (FaSSGF) [1] [μg/cm^2/min] | Papp A→B at 2 h, 5 μM [2] [×10⁻⁶ cm/s] | AUC(0-t) [3] [ng·h/mL] | Cmax [3] [ng/mL] | solubility kinetic at 2 h [4] [µM] | CLint scaled at 2 μM [5] [mL/min/kg] | IC50 (TYK2) [µM] | solid form stability at ambient conditions [6] | solid form stability upon grinding ([6]; grinding) |
| --- | --- | --- | --- | --- | --- | --- | --- | --- | --- |
| O=C1NCc2nc(-c3c(F)cccc3F)cc(Nc3ccc(C(=O)N4CCCC4)cc3)c21 [Compound 1] | 57.5 | 5.77 | 18700 | 2100 | 274 (≈ 119 µg/mL) | 0.62 |  |  |  |
| O=C1NCc2nc(-c3c(F)cccc3F)cc(Nc3ccc(N4CCCC4)cn3)c21 [Compound 7] |  | 13.5 |  |  | < 0.5 | 10.9 | 0.39 |  |  |
| O=C1NCc2nc(-c3c(F)cccc3F)cc(Nc3ccc(N4CCOCC4)cn3)c21 [Compound 8] |  | 13.1 |  |  | 11.9 (≈ 5.05 µg/mL) | 1.2 | 0.033 |  |  |
| O=C1NCc2nc(-c3c(F)cccc3F)cc(Nc3ccc(C(=O)N4CCOCC4)cc3)c21 [Compound 9] | 21.2 | 3.43 | 10200 | 1070 | 172 (≈ 77.3 µg/mL) | 3 | 0.134 |  |  |
| O=C1NCc2nc(-c3c(F)cccc3F)cc(Nc3ccc(C(=O)N4CCCCC4)cc3)c21 [Compound 10] |  | 4.03 |  |  | 1.45 (≈ 0.65 µg/mL) | 7.81 | 0.09 |  |  |
| CCN(CC)C(=O)c1ccc(Nc2cc(-c3c(F)cccc3F)nc3c2C(=O)NC3)cc1 [Compound 11] |  | 5.62 |  |  | 1.86 (≈ 0.812 µg/mL) |  | 0.119 |  |  |
| CC1(O)CCN(C(=O)c2ccc(Nc3cc(-c4c(F)cccc4F)nc4c3C(=O)NC4)cc2)CC1 [Compound 12] |  | 0.41 |  |  | 237 (≈ 113 µg/mL) |  | 0.136 |  |  |
| O=C1NCc2nc(-c3c(F)cccc3F)cc(Nc3ccc(C(=O)N4CCOCC4)nc3)c21 [Compound 13] |  | 2.89 |  |  | 252 (≈ 114 µg/mL) | 1.9 |  |  |  |
| N#Cc1cccc(F)c1-c1cc(Nc2ccc(C(=O)N3CCOCC3)cc2)c2c(n1)CNC2=O [Compound 14] |  | 2.08 |  |  | 271 (≈ 124 µg/mL) |  | 0.0242 |  |  |
| O=C1NCc2nc(-c3c(F)cccc3F)cc(Nc3ccc(C(=O)N4CCC4)cc3)c21 [Compound 15] |  | 7.59 |  |  | 3.75 (≈ 1.58 µg/mL) | 1.78 | 0.0741 |  |  |
| N#Cc1cccc(F)c1-c1cc(Nc2ccc(C(=O)N3CCCC3)cc2)c2c(n1)CNC2=O [Compound 16] |  | 2.63 |  |  | 32.9 (≈ 14.5 µg/mL) |  | 0.0177 |  |  |
| O=C1NCc2nc(-c3c(F)cccc3F)cc(Nc3ccc(C(=O)N4C[C@H]5COC[C@H]5C4)cc3)c21 [Compound 17] |  | 1.52 |  |  | 205 (≈ 97.5 µg/mL) |  | 0.0886 |  |  |
| CS(=O)(=O)O.O=C1NCc2nc(-c3c(F)cccc3F)cc(Nc3ccc(C(=O)N4CCCC4)cc3)c21 [Form III of Compound 1 mesylate] |  |  |  |  |  |  |  | transition to Form IV |  |
| CS(=O)(=O)O.O=C1NCc2nc(-c3c(F)cccc3F)cc(Nc3ccc(C(=O)N4CCCC4)cc3)c21 [Form IV of Compound 1 mesylate] |  |  |  |  |  |  |  | stable |  |
| CS(=O)(=O)O.O=C1NCc2nc(-c3c(F)cccc3F)cc(Nc3ccc(C(=O)N4CCCC4)cc3)c21 [Form V of Compound 1 mesylate] |  |  |  |  |  |  |  |  | transition to Form I |
